Activity calls are given as the source filed them.
Columns and labels:
[1] = target: Ion channel NompC (Danio rerio, UniProt Q7T1G6); test: Fluorescence counterscreen assay for TRPML3 agonists: dose response cell-based high-throughput screening assay to identify agonists of the transient receptor potential channel N1 (TRPN1). [Related pubchem assays: 1526, 1424, 1448 ]; type: functional
[2] = target: T1, Mucolipin-3 (Homo sapiens, UniProt Q8TDD5); test: Dose response cell-based high-throughput screening assay for agonists of the transient receptor potential channel ML3 (TRPML3). [Related pubchem assays: 1526, 1424, 1448 ]; type: functional
T1 sequence (Q8TDD5 whole entry): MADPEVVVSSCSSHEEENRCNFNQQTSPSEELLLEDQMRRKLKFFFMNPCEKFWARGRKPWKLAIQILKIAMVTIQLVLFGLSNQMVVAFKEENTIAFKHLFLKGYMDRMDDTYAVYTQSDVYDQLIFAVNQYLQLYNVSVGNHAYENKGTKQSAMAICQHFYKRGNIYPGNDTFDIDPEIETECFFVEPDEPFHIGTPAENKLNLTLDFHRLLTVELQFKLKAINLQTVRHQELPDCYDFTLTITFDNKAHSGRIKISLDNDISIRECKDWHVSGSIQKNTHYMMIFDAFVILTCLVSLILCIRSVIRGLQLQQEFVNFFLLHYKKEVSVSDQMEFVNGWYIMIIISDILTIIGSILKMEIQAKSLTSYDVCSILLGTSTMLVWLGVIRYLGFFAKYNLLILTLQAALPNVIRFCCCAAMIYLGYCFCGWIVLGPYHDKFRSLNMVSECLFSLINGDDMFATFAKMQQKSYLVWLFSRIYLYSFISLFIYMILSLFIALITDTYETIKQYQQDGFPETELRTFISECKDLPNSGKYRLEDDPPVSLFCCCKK

[3] = cells
[4] = cytotoxicity toward NIH3T3 fibroblasts, dose response, counter-screen, cell-based, ATP luminescence, mouse fibroblasts (AID 2010); type: functional;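 note: cells exposed to compound for about 90 hours before reading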
[5] = inhibitors of intracellular T. cruzi replication, confirmation, NIH3T3 host cells, beta-gal luminescence (AID 2044); type: functional, cell-based;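 note: intracellular parasites grown in NIH/3T3 mouse fibroblasts as host cells; luminescent beta-galactosidase reporter signal from transgenic T. cruzi replicating inside host cells; inhibitors lower the luminescence signal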
[6] = target: Neurotensin receptor type 1 (Homo sapiens, UniProt P30989); type: functional;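 note: Image-based confirmatory dose-response assay measuring agonist activity at NTR1; NTR1-expressing U2OS osteosarcoma cells imaged for beta-arrestin GFP spot formation; agonist potency where compounds increase beta-arrestin recruitment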
[7] = target: Voltage-dependent T-type calcium channel subunit alpha-1H (Homo sapiens, UniProt O95180); type: functional;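 note: channel activity triggered by adding a high calcium stimulation buffer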
Voltage-dependent T-type calcium channel subunit alpha-1H, sequence (O95180 whole entry): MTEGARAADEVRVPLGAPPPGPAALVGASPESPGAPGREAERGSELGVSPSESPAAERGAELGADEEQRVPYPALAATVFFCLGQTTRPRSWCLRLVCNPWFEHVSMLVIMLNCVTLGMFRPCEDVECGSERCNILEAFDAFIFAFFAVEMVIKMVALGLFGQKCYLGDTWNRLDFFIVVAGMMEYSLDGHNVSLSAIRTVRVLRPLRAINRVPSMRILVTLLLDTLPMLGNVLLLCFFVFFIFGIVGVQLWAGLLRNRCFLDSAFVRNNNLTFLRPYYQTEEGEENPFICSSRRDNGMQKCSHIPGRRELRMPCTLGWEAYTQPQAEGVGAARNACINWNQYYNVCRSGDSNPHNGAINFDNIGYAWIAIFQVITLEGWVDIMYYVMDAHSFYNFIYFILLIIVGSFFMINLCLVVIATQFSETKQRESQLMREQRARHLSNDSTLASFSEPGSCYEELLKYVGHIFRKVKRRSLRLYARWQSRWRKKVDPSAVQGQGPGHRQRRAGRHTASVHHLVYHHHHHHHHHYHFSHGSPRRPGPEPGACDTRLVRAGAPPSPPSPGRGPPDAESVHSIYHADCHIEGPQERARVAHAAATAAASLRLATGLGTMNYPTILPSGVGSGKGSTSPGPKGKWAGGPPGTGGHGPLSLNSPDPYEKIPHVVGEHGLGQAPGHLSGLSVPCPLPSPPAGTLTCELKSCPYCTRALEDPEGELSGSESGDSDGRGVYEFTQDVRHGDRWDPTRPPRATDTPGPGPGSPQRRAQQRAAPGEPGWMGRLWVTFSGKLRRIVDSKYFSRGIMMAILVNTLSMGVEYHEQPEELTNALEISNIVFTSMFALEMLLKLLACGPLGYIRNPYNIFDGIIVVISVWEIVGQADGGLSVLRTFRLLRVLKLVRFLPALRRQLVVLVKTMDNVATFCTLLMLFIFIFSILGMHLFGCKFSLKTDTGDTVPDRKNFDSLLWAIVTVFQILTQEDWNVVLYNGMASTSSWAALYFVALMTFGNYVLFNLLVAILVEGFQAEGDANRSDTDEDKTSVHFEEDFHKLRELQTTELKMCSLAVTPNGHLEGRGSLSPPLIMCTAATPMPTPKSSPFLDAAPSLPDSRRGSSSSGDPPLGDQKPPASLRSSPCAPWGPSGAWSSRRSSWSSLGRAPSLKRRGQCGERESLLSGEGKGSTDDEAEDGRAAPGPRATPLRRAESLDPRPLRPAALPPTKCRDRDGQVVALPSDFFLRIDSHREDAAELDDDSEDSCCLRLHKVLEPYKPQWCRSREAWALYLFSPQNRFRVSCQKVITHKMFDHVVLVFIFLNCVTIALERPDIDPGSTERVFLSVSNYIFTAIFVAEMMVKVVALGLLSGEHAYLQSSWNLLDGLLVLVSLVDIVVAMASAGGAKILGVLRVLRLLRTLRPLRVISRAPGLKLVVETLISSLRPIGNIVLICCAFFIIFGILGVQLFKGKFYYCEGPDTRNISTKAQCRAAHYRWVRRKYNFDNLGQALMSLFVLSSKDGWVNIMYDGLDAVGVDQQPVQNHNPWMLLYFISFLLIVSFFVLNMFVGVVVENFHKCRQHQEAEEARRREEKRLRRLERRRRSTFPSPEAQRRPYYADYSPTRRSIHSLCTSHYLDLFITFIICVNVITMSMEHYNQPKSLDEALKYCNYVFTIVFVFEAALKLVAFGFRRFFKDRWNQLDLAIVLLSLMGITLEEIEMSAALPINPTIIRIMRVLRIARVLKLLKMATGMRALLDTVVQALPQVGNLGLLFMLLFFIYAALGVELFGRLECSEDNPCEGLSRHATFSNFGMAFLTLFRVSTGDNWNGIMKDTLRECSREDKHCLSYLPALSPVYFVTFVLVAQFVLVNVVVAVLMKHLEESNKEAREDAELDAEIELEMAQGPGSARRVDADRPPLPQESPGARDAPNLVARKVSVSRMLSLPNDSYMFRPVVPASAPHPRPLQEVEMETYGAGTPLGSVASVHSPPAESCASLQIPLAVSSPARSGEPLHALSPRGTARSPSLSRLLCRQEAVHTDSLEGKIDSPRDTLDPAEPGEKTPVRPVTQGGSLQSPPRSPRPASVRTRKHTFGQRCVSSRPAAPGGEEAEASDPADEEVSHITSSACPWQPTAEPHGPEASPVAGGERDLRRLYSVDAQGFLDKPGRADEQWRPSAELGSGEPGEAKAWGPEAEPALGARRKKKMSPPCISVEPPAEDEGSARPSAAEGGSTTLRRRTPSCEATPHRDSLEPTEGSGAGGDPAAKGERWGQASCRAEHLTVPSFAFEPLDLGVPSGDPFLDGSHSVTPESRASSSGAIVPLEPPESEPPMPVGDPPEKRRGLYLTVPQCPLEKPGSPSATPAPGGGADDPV

[8] = target: T2, Cytochrome P450 3A4 (Homo sapiens, UniProt P08684); conditions: Potency
T2 sequence (P08684 whole entry): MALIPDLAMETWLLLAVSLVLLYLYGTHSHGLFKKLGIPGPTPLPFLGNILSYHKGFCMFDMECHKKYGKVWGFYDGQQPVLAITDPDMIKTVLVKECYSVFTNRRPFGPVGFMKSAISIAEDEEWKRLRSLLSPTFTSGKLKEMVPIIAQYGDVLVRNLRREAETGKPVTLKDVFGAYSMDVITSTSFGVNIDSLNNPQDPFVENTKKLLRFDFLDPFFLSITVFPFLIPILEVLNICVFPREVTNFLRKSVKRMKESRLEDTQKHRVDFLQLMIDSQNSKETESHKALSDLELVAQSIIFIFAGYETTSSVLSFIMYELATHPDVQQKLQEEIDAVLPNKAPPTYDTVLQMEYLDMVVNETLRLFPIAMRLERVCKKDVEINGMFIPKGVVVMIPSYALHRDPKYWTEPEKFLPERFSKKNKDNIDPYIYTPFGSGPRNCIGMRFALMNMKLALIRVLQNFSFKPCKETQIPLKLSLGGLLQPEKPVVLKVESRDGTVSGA

[9] = target: NAD-dependent protein deacylase sirtuin-5, mitochondrial (Homo sapiens, UniProt Q9NXA8); test: SIRT5 desuccinylase inhibitors, dose response, biochemical, fluorescence imaging, cherry-pick, set 5 (AID 720591);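 note: desuccinylation of succinyl peptide AMC substrate read as fluorescence after trypsin release; potency of inhibitors that lower fluorescence and may act on trypsin instead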
NAD-dependent protein deacylase sirtuin-5, mitochondrial, sequence (Q9NXA8 whole entry): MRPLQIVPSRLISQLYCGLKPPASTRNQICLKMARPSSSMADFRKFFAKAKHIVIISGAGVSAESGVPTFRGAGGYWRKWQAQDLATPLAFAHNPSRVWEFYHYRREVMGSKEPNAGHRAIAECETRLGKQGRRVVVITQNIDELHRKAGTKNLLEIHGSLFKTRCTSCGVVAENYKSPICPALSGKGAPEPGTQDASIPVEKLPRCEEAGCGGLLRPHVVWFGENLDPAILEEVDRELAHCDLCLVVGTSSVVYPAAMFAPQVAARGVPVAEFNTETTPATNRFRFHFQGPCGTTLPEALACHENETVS

[10] = THP-1 cell cytotoxicity, dose response, cytotoxicity control for non-replicating M. tuberculosis project (AID 489025); type: functional
[11] = HepG2 cell cytotoxicity, dose response, cytotoxicity control for non-replicating M. tuberculosis project (AID 489018); type: functional; conditions: Mycobacterium tuberculosis
[12] = tested on: INS1; test: beta cell apoptosis inhibitors, cytokine rescue, dose response, luminescence, retest (AID 449756); type: functional, cell-based; conditions: Rattus norvegicus;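 note: cell death triggered by IL-1 beta plus TNF-alpha plus IFN-gamma mixture; protective hits raise ATP signal compared with cytokine alone wells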
[13] = target: T2, Cytochrome P450 3A4
[14] = cytotoxicity toward DRD oncogenic fibroblasts, dose response, cell-based, non-viral oncogenic, luminescence (AID 1934); type: functional; conditions: Homo sapiens
[15] = tested on: BJ; test: cytotoxicity toward BJ-TERT fibroblasts, dose response, cell-based, RAS-independent, luminescence (AID 1933); type: functional; conditions: Homo sapiens
[16] = tested on: BJ; test: cells; type: functional, cell-based; conditions: Homo sapiens
[17] = tested on: BJ; test: cytotoxicity toward BJ-TERT-LT-ST fibroblasts, dose response, cell-based, RAS-independent, luminescence (AID 1935); type: functional; conditions: Homo sapiens;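 note: BJ fibroblasts immortalized with TERT plus LT and ST oncogenes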
[18] = target: T3, Heat shock factor protein 1 (Mus musculus, UniProt P38532); test: HSF1 potentiators in luciferase reporter cells, confirmation, cell-based, NIH3T3, luminescence, dose retest (AID 435004); type: functional;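 note: stress induced by proteasome inhibitor MG132 added 30 min after compound; luciferase reporter driven by HSF1 response element in NIH3T3 cells; actives raise luminescence as potentiators of the MG132 stress response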
T3 sequence (P38532 whole entry): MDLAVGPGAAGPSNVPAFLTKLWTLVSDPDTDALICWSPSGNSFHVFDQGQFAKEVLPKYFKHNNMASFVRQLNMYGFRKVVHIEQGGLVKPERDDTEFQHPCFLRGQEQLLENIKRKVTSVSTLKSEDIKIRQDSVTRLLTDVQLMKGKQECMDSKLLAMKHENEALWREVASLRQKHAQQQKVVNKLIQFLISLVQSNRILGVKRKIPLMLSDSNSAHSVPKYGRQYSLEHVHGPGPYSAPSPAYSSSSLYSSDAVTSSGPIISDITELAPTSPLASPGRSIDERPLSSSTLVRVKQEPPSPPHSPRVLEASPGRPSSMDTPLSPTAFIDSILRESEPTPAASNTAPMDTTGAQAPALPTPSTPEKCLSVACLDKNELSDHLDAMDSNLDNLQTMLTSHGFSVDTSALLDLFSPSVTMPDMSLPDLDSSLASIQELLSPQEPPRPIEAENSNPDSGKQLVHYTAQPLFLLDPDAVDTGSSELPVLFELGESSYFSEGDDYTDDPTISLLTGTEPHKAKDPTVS

[19] = target: Beta-galactosidase (Escherichia coli, UniProt Q8VNN2); test: beta-galactosidase enzyme inhibitors and activators, dose response, artefact control for CCR6 antagonist project, biochemical, E. coli enzyme, set 3 (AID 504712); type: functional
[20] = target: T4, Corticotropin-releasing factor receptor 2/Corticotropin-releasing factor-binding protein (Homo sapiens, UniProt P24387+Q13324); test: activators of CRF receptor 2 with binding protein – uHTS hits, confirmation (AID 602473); type: functional; conditions: read-out: EC50_Mean
T4 sequence (Q13324 whole entry): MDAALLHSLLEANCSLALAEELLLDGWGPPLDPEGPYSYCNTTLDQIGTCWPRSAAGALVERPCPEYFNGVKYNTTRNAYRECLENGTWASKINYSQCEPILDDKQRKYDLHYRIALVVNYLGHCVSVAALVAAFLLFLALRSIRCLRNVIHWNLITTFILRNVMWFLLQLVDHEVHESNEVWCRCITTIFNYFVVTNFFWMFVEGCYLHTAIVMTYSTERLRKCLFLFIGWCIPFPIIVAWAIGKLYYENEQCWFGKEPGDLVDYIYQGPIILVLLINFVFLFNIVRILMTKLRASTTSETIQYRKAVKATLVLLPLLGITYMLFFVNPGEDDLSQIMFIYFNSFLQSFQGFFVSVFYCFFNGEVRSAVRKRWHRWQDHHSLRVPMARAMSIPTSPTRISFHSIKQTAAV
T4 sequence (P24387 whole entry): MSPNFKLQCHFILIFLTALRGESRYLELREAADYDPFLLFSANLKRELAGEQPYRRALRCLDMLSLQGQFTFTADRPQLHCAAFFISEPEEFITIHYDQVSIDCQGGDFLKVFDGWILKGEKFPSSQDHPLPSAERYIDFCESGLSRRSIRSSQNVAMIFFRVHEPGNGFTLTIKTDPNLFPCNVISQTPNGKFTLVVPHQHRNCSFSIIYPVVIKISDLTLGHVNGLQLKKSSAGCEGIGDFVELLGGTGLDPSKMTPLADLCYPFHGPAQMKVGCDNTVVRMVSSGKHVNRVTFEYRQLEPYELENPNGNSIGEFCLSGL

[21] = target: T4, Corticotropin-releasing factor receptor 2/Corticotropin-releasing factor-binding protein; test: Dose Response confirmation of uHTS hits for small molecule antagonists of the CRF-binding protein and CRF-R2 receptor complex.; type: functional; conditions: read-out: IC50_Mean
[22] = tested on: Streptococcus sp. 'group A'; test: growth inhibition of control SK(-) GAS strain, dose response, counter-screen for streptokinase expression inhibitor project, luminescence, kanamycin, BacTiterGlo, confirmation (AID 1900); type: functional, organism-based
[23] = target: T5, Streptokinase A (Streptococcus pyogenes serotype M1, UniProt P10520); test: S. pyogenes streptokinase expression inhibitors, potency, dose response, plasminogen activation absorbance, OD405 (AID 1914); type: functional, Streptococcus pyogenes M1 GAS;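 note: secreted streptokinase activity via plasminogen activation per viability signal from cell pellet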
T5 sequence (P10520 whole entry): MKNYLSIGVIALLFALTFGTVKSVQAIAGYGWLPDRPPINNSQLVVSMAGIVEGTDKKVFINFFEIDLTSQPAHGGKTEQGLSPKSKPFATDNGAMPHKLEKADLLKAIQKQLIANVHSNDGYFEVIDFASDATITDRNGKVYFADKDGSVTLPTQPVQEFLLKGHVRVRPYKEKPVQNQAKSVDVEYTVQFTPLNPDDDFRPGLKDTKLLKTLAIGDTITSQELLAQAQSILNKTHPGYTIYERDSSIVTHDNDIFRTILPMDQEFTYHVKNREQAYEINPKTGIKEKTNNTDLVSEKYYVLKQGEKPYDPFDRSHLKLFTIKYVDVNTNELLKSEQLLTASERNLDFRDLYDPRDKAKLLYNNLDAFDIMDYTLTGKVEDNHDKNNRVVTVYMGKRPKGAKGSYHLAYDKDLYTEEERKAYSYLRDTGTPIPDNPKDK

[24] = tested on: Streptococcus; test: Group A Streptococcus viability loss, dose response, counter-screen for streptokinase expression inhibitor project, luminescence, BacTiterGlo (AID 1915); type: functional, organism-based;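 note: potency for reduction of bacterial viability or growth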
[25] = cytotoxicity in HEK-293T cells, dose response, cytotoxicity control for TCR NF-kB inhibitor project, luminescence, T-cell screen hits (AID 489026); type: functional, cell-based;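 note: cells exposed to compound about 14 hours before the viability readout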

Ion channel NompC, sequence (Q7T1G6 whole entry): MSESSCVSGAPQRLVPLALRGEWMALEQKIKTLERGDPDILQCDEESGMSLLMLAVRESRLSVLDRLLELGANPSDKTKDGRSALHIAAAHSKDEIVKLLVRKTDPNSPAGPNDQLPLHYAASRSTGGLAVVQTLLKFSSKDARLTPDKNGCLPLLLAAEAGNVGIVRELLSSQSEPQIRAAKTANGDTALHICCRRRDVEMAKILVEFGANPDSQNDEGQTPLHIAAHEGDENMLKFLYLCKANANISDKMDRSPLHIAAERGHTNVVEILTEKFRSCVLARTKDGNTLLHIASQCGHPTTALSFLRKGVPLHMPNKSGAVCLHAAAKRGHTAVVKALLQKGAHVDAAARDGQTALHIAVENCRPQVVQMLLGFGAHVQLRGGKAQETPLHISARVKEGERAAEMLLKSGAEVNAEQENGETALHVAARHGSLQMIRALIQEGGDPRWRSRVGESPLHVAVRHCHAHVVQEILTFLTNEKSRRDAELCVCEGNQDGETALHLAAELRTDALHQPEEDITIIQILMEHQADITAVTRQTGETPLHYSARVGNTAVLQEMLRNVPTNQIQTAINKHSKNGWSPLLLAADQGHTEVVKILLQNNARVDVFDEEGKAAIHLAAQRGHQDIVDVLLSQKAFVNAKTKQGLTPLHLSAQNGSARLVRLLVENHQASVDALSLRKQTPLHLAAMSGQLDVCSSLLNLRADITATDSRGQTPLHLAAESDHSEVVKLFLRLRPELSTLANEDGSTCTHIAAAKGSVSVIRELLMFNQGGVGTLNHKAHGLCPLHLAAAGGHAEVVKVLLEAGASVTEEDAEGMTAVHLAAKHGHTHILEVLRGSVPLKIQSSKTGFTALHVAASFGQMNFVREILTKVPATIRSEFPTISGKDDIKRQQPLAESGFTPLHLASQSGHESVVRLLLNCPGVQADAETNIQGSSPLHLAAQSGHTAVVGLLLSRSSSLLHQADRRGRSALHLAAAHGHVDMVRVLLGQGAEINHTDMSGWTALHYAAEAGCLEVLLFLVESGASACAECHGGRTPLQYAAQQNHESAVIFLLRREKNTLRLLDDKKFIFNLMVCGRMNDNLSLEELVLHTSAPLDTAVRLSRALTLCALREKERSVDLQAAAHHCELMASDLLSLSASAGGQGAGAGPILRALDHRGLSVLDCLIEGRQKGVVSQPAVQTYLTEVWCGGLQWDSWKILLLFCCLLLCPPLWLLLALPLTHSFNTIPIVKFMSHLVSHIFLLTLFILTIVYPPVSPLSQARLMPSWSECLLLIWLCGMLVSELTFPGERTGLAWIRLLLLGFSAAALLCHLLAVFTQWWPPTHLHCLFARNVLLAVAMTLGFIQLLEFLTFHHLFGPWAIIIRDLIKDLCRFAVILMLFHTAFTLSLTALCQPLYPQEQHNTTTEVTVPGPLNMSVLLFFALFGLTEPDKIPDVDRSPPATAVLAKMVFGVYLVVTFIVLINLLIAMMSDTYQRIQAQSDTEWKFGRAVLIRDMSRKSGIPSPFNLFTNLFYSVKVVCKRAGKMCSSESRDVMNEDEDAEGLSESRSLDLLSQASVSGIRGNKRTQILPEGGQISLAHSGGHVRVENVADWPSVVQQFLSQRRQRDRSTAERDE

COc1cc(C)nc(N(Cc2ccccc2)S(=O)(=O)c2ccc(C)cc2)n1
EC50 [1]: > 29.9 µM (not active) | EC50 [2]: 6.93 µM (active)

Cc1ccc(S(=O)(=O)N(C)CC(=O)ONC(=N)c2cccc([N+](=O)[O-])c2)cc1
EC50 [1]: > 29.9 µM (not active) | EC50 [2]: 12.1 µM (not active)

CC1CC(C)CN(CCOCCSc2ccccc2)C1 (stereo unspecified)
EC50 [3]: 0.09 µM (active) | EC50 [4]: > 60 µM (inconclusive) | EC50 [5]: < 0.1 µM (active)

CCOc1cc(/C=C2/C(=O)ON=C2C)ccc1OCc1ccccc1
EC50 [6]: 23 µM (inactive)

CCc1ccccc1NC(=O)c1cc2sccc2n1C
EC50 [7]: 12 µM (active)

C=C1C(=O)OC2C1CC/C(C)=C/CCC1(C)OC21 (stereo unspecified)
AC50 [8]: 25.1 µM (inconclusive)

Cc1ccc2c(c1)C(O)(c1c(C)[nH]c3ccccc13)C(=O)N2 (stereo unspecified)
EC50 [7]: 8.82 µM (active)

C[C@H](NC(=O)c1[nH]cnc1C(=O)NCc1ccc(CNC(=O)OC(C)(C)C)cc1)C(=O)OCc1ccccc1
EC50 [6]: 19.4 µM (active)

COc1cc(C(=O)NNC(=O)C2CCC2)cc(OC)c1OC
AC50 [9]: 29.9 µM (active)

Cc1cc(Br)ccc1OCCCCN1CCCCC1
CC50 [10]: > 40 µM (active) | CC50 [11]: > 20 µM (active) | EC50 [4]: > 60 µM (not active) | EC50 [5]: 0.75 µM (active)

C=CCN(CC=C)CC(O)Cn1c2ccccc2c2ccccc21 (stereo unspecified)
AC50 [12]: > 120 µM (inactive) | EC50 [7]: 9.06 µM (active) | AC50 [13]: 28.2 µM (inconclusive)

CN1CCN(c2ccc(C(=O)c3ccc(Br)cc3)cc2[N+](=O)[O-])CC1
EC50 [14]: > 150 µM (not active) | EC50 [15]: > 150 µM (not active) | EC50 [16]: > 150 µM (not active) | EC50 [17]: > 150 µM (not active)

Cc1cccc(-n2c(SCC(N)=O)nnc2-c2ccco2)c1
AC50 [9]: > 30 µM (inactive)

Cc1cc(CNC(=O)Cc2c(F)cccc2Cl)nn1C
AC50 [9]: > 30 µM (inactive)

CCOC(=O)c1c(N2C(=O)C=CC2=O)sc(C)c1C
EC50 [18]: 4.22 µM (active) | IC50 [19]: > 66.6 µM (inactive)

Cc1nc2c(Cl)cccc2c(O)c1CN1CCCCCC1
EC50 [3]: 0.046 µM (active) | EC50 [4]: > 60 µM (not active) | EC50 [5]: < 0.1 µM (active)

COc1c2c(cc3c1OCO3)C13C=CC(OC)CC1N(C2)CC3O (stereo unspecified)
AC50 [8]: 39.8 µM (inconclusive)

O=C(N/N=C/c1ccc([N+](=O)[O-])o1)c1cn(-c2ccccc2)nc1-c1ccc(Cl)cc1
EC50 [3]: 0.028 µM (active) | EC50 [4]: > 30 µM (not active) | EC50 [5]: < 0.1 µM (active)

C=CCOc1ccc2c(c1)c(S(=O)(=O)c1ccc(C)cc1)cn2COC
EC50 [1]: > 29.9 µM (not active) | EC50 [2]: 1.16 µM (active)

CNC(=O)[C@H](C)/C=C(\c1cccnc1)C(NC(=O)OCc1ccccc1)c1ccc(C(=O)OC)cc1 (stereo partly specified)
AC50 [8]: 20 µM (inconclusive)

CC(=O)c1ccc(OC(=O)Cc2cccc3ccccc23)cc1
AC50 [9]: 10.4 µM (active)

CCN(CC)CCN(C(=O)CN1C(=O)c2ccccc2C1=O)c1nc2cc3c(cc2s1)OCO3
EC50 [20]: > 53 µM (inactive) | IC50 [21]: > 47.1 µM (inactive) | EC50 [3]: 0.349 µM (active) | EC50 [4]: > 60 µM (not active) | EC50 [5]: < 0.1 µM (active)

COC(=O)c1cnc(Oc2ccc(NC(=O)NC(=O)c3c(F)cccc3Cl)cc2)cc1C(F)(F)F
EC50 [14]: 3.69 µM (inconclusive) | EC50 [15]: 1.08 µM (active) | EC50 [22]: 49 µM (active) | EC50 [23]: 1.95 µM (active) | EC50 [16]: 36.1 µM (inconclusive) | EC50 [24]: > 150 µM (not active) | IC50 [25]: > 80 µM (inactive) | EC50 [17]: 19.9 µM (active)

O=C1C=CC(=O)N1c1ccc(Sc2ccc([N+](=O)[O-])cc2)cc1
EC50 [14]: 24.7 µM (active) | EC50 [15]: 7.87 µM (active) | EC50 [16]: 21 µM (active) | EC50 [17]: > 75 µM (inconclusive)

From ChEMBL document CHEMBL1201862, “PubChem BioAssay data set” (2004)
